Data published in ChEMBL document CHEMBL4376903, “Cereblon Based Immunomodulatory Therapeutics” (ACS Med Chem Lett, 2020).

Key:
Assay type in all cases: cell-based
Estrogen receptor = target: T1, Estrogen receptor (Homo sapiens, UniProt P03372); assay: Inhibition of ERalpha in human T47D cells by ERE-driven luciferase reporter gene assay based target engagement assay
T1 sequence (P03372 whole entry): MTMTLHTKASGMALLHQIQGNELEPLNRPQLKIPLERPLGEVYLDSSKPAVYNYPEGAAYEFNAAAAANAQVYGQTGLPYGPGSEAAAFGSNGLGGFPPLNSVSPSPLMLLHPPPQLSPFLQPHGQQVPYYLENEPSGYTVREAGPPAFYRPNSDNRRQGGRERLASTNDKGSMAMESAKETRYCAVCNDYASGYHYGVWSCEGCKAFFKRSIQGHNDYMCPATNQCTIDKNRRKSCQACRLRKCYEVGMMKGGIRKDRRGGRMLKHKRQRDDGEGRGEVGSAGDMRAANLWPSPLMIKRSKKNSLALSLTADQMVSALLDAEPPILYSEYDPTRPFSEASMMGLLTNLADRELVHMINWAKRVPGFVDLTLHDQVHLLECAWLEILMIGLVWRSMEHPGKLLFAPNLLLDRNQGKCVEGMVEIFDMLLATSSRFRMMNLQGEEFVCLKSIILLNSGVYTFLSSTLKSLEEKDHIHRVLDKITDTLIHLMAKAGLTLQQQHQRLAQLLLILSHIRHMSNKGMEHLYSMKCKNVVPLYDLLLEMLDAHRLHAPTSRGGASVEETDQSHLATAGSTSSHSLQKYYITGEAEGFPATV

[1] = target: T2, Protein cereblon/Estrogen receptor (Homo sapiens, UniProt P03372+Q96SW2); assay: Protac activity at cereblon/ERalpha in human MCF7 cells assessed as induction of ERalpha protein degradation by Western blot analysis
Target sequence in this assay (Q96SW2 whole entry, one chain of several): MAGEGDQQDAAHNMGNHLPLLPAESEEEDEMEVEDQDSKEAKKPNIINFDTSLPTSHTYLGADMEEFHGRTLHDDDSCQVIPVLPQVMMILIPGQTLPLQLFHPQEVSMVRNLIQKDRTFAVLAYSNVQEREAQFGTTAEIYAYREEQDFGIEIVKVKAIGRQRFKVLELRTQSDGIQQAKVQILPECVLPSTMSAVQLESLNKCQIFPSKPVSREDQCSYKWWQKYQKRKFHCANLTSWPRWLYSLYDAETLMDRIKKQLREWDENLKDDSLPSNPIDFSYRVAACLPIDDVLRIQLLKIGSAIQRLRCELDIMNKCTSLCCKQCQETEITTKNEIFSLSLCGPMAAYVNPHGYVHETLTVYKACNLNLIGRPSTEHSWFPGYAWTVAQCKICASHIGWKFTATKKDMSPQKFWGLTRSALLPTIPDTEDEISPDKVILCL

[2] = target: T2, Protein cereblon/Estrogen receptor; assay: Protac activity at cereblon/ERalpha in human MCF7 cells assessed as induction of ERalpha protein degradation by Western blot analysis relative to control
Target sequence in this assay (Q96SW2 whole entry, looked up, one chain of several): as the sequence (Q96SW2 whole entry, one chain of several) above

| IC50 (Estrogen receptor) | DC50 [1] | Emax [2] | Compound |
| --- | --- | --- | --- |
| 0.7 nM | < 1 nM | > 75% | COc1cc(N2CCN(CC(=O)C3CC(Oc4ccc([C@@H]5c6ccc(O)cc6CC[C@@H]5c5ccccc5)cc4)C3)CC2)cc2c1C(=O)N(C1CCC(=O)NC1=O)C2 (some centres undefined) |
| 0.3 nM | < 1 nM | > 75% | COc1cc(N2CCN(CCC3(O)CC(Oc4ccc([C@@H]5c6ccc(O)cc6CC[C@@H]5c5ccccc5)cc4)C3)CC2)cc2c1C(=O)N(C1CCC(=O)NC1=O)C2 (some centres undefined) |
| 0.37 nM | < 1 nM | > 75% | COc1cc(N2CCN(CCCCCOc3ccc([C@@H]4c5ccc(O)cc5CC[C@@H]4c4ccccc4)cc3)CC2)cc2c1C(=O)N([C@@H]1CCC(=O)NC1=O)C2 |
| 0.5 nM | < 1 nM | 50 to 75% | O=C1CCC(N2Cc3cc(N4CCN(CCC5(O)CC(Oc6ccc([C@@H]7c8ccc(O)cc8CC[C@@H]7c7ccccc7)cc6)C5)CC4)cc(OC(F)F)c3C2=O)C(=O)N1 (some centres undefined) |
| 0.79 nM | 1 to 10 nM | > 75% | COc1cc(N2CCN(CCCCCOc3ccc([C@@H]4c5ccc(O)cc5CC[C@@H]4c4ccccc4)cc3)CC2)cc2c1C(=O)N(C1CCC(=O)NC1=O)C2 (some centres undefined) |
| 0.82 nM | < 1 nM | 50 to 75% | COc1cc(N2CCN(C3CC4CC(Oc5ccc([C@@H]6c7ccc(O)cc7CC[C@@H]6c6ccc(F)cc6)cc5)CC4C3)CC2)cc2c1C(=O)N(C1CCC(=O)NC1=O)C2 (some centres undefined) |
| 0.49 nM | < 1 nM | > 75% | COc1cc(N2CCN(CCCCCOc3ccc([C@@H]4c5ccc(O)cc5CC[C@@H]4c4ccccc4)cc3)CC2)cc2c1C(=O)N([C@H]1CCC(=O)NC1=O)C2 |
| 0.7 nM | 1 to 10 nM | > 75% | COc1cc(N2CCN(CCC3CCN(c4ccc([C@@H]5c6ccc(O)cc6CC[C@@H]5c5ccccc5)cc4F)CC3)CC2)cc2c1C(=O)N(C1CCC(=O)NC1=O)C2 (some centres undefined) |
